From patent US8168651B2, “Protein kinase modulators” (Cylene Pharmaceuticals, Inc., priority 2008, dated 2012)
pIC50: −log10 of the molar value. Like-named read-outs stand apart in the source and are kept apart here.

Tests used:
[1] = tested on: A549; assay: Cell-proliferation assay using Alamar Blue dye; format: cell-based; details: Homo sapiens
Protocol: (§1) A representative cell-proliferation assay protocol using Alamar Blue dye (stored at 4° C., use 20 ul per well) is described hereafter.
(§2) 96-Well Plate Setup and Compound Treatment
(§3) • a. Split and trypsinize cells. • b. Count cells using hemocytometer. • c. Plate 4,000-5,000 cells per well in 100 μl of medium and seed into a 96-well plate according to the following plate layout. Add cell culture medium only to wells B10 to B12. Wells B1 to B9 have cells but no compound added.
(§4) • d. Add 100 μl of 2× drug dilution to each well in a concentration shown in the plate layout above. At the same time, add 100 μl of media into the control wells (wells B10 to B12). Total volume is 200 μl/well. • e. Incubate four (4) days at 37° C., 5% CO2 in a humidified incubator. • f. Add 20 μl Alamar Blue reagent to each well. • g. Incubate for four (4) hours at 37° C., 5% CO2 in a humidified incubator. • h. Record fluorescence at an excitation wavelength of 544 nm and emission wavelength of 590 nm using a microplate reader.
(§5) In the assays, cells are cultured with a test compound for approximately four days, the dye then is added to the cells and fluorescence of […] dye is detected after approximately four hours. Different types of cells can be utilized in the assays (e.g., HCT-116 human colorectal carcinoma cells, PC-3 human prostatic cancer cells and MiaPaca human pancreatic carcinoma cells). Anti-proliferative effects of representative compounds are provided hereafter

[2] = tested on: MCF-7; assay: Cell-proliferation assay using Alamar Blue dye; format: cell-based; details: Homo sapiens, MCF7
Protocol: as §1, §2, §3, §4, §5

[3] = tested on: LNCaP; assay: Cell-proliferation assay using Alamar Blue dye; format: cell-based; details: Homo sapiens
Protocol: as §1, §2, §3, §4, §5

[4] = Pharmacokinetics after IV and PO dose in ICR mice; format: in vivo; details: for half-life: mouse, plasma
Protocol: […] Blood samples were collected at predetermined times and the plasma separated. Plasma was separated from the blood samples collected at 5, 15 and 30 minutes and 1, 2, 4, 8 and 24 hours post-dose.
Drug levels were quantified by the LC/MS/MS method described below. Noncompartmental pharmacokinetic analysis was applied for intravenous administration. A linear trapezoidal rule was used to compute AUC(0-24). The terminal t1/2 and C0 were calculated using the last three and the first three data points, respectively
Bioanalysis was performed using a Quattro Micro LC/MS/MS instrument in the MRM detection mode, with an internal standard (IS). Briefly, 15 µL plasma samples were prepared for analysis using protein precipitation with 120 μL of acetonitrile. The supernatants were transferred into a 96 well plate and subjected to LC-MS/MS analysis using a Phenomenex Polar-RP HPLC column. The mobile phases were 10 mM NH4HCO3 in water (Solution-A) and 10 mM NH4HCO3 in methanol (Solution-B). […] Quantitation of the analytes was performed in the batch mode with two bracketing calibration curves according to the bioanalytical sample list.

[5] = tested on: K-562; assay: Cell-proliferation assay using Alamar Blue dye; format: cell-based; details: Homo sapiens, K562
[6] = tested on: MDAMB231; assay: Cell-proliferation assay using Alamar Blue dye; format: cell-based; details: Homo sapiens, MDA-MB-231
Protocol: as §1, §2, §3, §4, §5

[7] = tested on: MV-4-11; assay: Cell proliferation modulatory activity, MV-4-11; format: cell-based; details: Homo sapiens, MV4-11; MV-4-11 cells
[8] = tested on: K-562; assay: Cell proliferation modulatory activity, K-562; format: cell-based; details: Homo sapiens, K562; K-562 cells
[9] = molecular target: recombinant human PIM1 (Homo sapiens (Human), UniProt P11309); assay: PIM-1 kinase activity in cell-free in vitro assay; format: biochemical; details: for inhibition at 0.5 µM: 500 nM compound, read-out: PIM-1: % inh 500 nM
[10] = tested on: Jurkat; assay: Cell proliferation modulatory activity, Jurkat; format: cell-based; details: Homo sapiens; Jurkat cells
[11] = tested on: HCT-116 human colorectal carcinoma cells; assay: Cell-proliferation assay using Alamar Blue dye; format: cell-based; details: Homo sapiens, HCT-116, second HCT-116 column (c8); read-out: HCT-116 (uM) cell proliferation modulatory activity;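 note: cells exposed to compound for about 4 days, then Alamar Blue added and dye fluorescence read after about 4 h, compared with medium-only control wells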
[12] = tested on: MV-4-11 (AML) xenograft; details: MV-4-11 (AML) xenograft model; cited from earlier work
[13] = tested on: MOLM-13 (AML) xenograft; details: MOLM-13 (AML) xenograft model; cited from earlier work
[14] = tested on: MiaPaca xenografts; assay: Tumor suppression in MiaPaca xenograft mice; format: in vivo, NCr nu/nu mice; details: IV administration
Protocol: Animals were handled under laminar-flow hoods.
Tumor volume measurements (FIG. 3A) and body weight (FIG. 3B) were recorded on days 3, 6, 8, 10, 13 and 15.
Gemzar™ administered at a dose of 80 mg/kg IP Q3D was used as a positive control.

[15] = tested on: PC-3 human prostatic cancer cells; assay: Cell-proliferation assay using Alamar Blue dye; format: cell-based; details: read-out: PC3 IC50
In short: (§6)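 Proliferation is assessed by Alamar Blue reduction after roughly four days of compound exposure, with fluorescence read about four hours after dye addition.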

[16] = molecular target: FLT3 autophos (Homo sapiens (Human), UniProt P36888); assay: FLT3 autophos IC50 (Table 46); format: cell-based
[17] = tested on: K-562; assay: K-562 IC50 (Table 46); format: cell-based; details: Homo sapiens, K562
[18] = tested on: MDA MB231; assay: MDA MB231 IC50 (Table 46); format: cell-based; details: Homo sapiens, MDA-MB-231
[19] = tested on: MV-411; assay: MV-411 IC50 (Table 46); format: cell-based; details: Homo sapiens, MV4-11
[20] = tested on: phospho-BAD ser112; assay: phospho-BAD ser112 IC50 (Table 46); format: cell-based
[21] = tested on: MiaPaca human pancreatic carcinoma cells; assay: Cell-proliferation assay using Alamar Blue dye; format: cell-based; details: MIA PaCa-2
In short: as §6

[22] = tested on: leukemic cells from AML patients; details: cited from earlier work

Sequence of FLT3 autophos (P36888 27-993): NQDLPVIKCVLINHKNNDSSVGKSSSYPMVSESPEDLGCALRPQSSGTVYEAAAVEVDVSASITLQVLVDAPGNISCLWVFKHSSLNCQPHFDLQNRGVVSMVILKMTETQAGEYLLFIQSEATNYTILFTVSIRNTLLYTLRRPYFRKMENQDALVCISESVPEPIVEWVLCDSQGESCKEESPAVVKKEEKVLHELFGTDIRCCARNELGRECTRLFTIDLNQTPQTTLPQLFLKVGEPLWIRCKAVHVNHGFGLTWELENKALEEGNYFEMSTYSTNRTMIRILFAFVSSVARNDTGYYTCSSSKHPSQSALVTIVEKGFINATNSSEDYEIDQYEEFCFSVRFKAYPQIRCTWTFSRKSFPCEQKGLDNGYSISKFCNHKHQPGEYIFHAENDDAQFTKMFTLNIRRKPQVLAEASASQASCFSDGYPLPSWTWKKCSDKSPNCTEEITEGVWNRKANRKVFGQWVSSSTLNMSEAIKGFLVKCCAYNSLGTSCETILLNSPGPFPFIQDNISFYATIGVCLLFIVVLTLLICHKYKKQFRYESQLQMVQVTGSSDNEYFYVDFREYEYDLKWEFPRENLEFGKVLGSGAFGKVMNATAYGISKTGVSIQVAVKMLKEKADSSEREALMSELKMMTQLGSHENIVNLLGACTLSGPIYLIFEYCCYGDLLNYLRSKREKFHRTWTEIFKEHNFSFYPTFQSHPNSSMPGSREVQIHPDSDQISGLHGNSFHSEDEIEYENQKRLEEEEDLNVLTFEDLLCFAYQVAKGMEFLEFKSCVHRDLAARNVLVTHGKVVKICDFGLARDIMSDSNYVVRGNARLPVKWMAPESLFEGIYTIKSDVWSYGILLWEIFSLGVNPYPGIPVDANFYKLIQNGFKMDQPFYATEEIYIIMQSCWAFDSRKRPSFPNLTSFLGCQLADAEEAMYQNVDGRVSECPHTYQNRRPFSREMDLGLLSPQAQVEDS
Sequence of recombinant human PIM1 (P11309 whole entry): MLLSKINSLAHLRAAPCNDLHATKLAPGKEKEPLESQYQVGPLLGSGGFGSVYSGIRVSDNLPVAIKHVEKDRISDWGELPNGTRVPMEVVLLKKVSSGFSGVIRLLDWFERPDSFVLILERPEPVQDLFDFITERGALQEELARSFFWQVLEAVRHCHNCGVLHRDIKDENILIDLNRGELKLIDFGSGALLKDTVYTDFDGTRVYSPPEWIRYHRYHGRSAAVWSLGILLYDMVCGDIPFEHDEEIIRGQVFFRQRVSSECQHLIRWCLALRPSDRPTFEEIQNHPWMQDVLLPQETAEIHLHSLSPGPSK

Row | Structure (SMILES) | pIC50 [9] | pIC50 [15] | pIC50 [16] | pIC50 [17] | pIC50 [18] | pIC50 [19] | pIC50 [20] | other results
1 | O=C(O)c1ccc2c(c1)nc(NCCc1ccccc1)c1ccncc12 [drawing 988] |  |  |  |  |  |  |  | IC50 [1]: 47 µM; IC50 [2]: 14.7 µM; IC50 [3]: 8.6 µM
2 | C#Cc1cccc(Nc2nc3cc(C(=O)O)ccc3c3cncnc23)c1 [drawing 1129] |  |  |  |  |  |  |  | F(0-24 h) ([4]; PO 24.5 mg/kg): 26.5%; F(0-Inf) ([4]; PO 24.5 mg/kg): 31.1%; Kel ([4]; PO 24.5 mg/kg): 0.0594 h⁻¹; half-life ([4]; IV 3.4 mg/kg): 4.9 h; half-life ([4]; PO 24.5 mg/kg): 11.7 h
3 | O=C(O)c1ccc2c(c1)nc(NCCCc1ccccc1)c1ccncc12 [drawing 1003] |  |  |  |  |  |  |  | IC50 [5]: 7.17 µM; IC50 [6]: 7.66 µM; IC50 [1]: > 50 µM; IC50 [2]: > 50 µM; IC50 [3]: 10.4 µM
4 | O=C(O)c1ccc2c(c1)nc(Nc1ccccc1OCc1ccccc1)c1ccncc12 |  |  |  |  |  |  |  | IC50 [7]: > 10 µM; IC50 [8]: > 10 µM; inhibition at 0.5 µM ([9]; cell-free assay): 27.7%; IC50 [10]: 29.8 µM; IC50 [11]: > 10 µM
5 | CN1CCC(CNc2ccc3ncc(-c4cccc(OC(F)(F)F)c4)n3n2)CC1 [SGI-1776] |  |  |  |  |  |  |  | tumor regression [12]: significant tumor regression; tumor regression [13]: significant tumor regression
6 | O=C(O)c1ccc2c(c1)nc(NCCc1cccc(F)c1)c1ccncc12 [drawing 1002] |  |  |  |  |  |  |  | IC50 [6]: 5.83 µM; IC50 [1]: 47.2 µM; IC50 [2]: > 50 µM; IC50 [3]: 10.3 µM
7 | O=C(O)c1ccc2c(c1)nc(Nc1cccc(C(F)(F)F)c1)c1nc(NC3CC3)ncc12 [Compound A3] |  |  |  |  |  |  |  | tumor progression [14]: significantly inhibited tumor progression
8 | Clc1cc(OCCN2CCOCC2)ccc1Nc1nc2c(-c3nnc[nH]3)cccc2c2cnccc12 | > 7.00 | < 4.52 | 5.22 | < 5.00 | < 5.00 | > 7.00 | > 7.00 | 
9 | CN(C)CCOc1ccc(Nc2nc3c(-c4nnc[nH]4)cccc3c3cnccc23)cc1 | > 7.00 | 5.75 | < 5.00 | > 7.00 | 5.59 | > 7.00 | > 7.00 | 
10 | FC(F)(F)Oc1ccc(Nc2nc3c(-c4nnc[nH]4)cccc3c3cnccc23)c(Cl)c1 | > 7.00 | < 4.52 | < 5.00 | < 5.00 | < 5.00 | > 7.00 | 5.38 | pIC50 [21]: < 5.00
11 | CN(C)CCOc1ccc(Nc2nc3c(-c4nnc[nH]4)cccc3c3cnccc23)c(Cl)c1 | > 7.00 |  | 5.27 | 5.16 | 5.91 | > 7.00 | > 7.00 | 
12 | c1cc(-c2nnc[nH]2)c2nc(NC3CCC3)c3ccncc3c2c1 | > 7.00 | > 6.30 | < 5.00 | > 6.30 | < 5.00 | > 7.00 | > 7.00 | pIC50 [21]: 5.12
13 | c1cc(-c2nnc[nH]2)c2nc(Nc3ccc(OCCN4CCOCC4)cc3)c3ccncc3c2c1 | > 7.00 | > 6.00 | < 5.00 | > 6.30 | 5.69 | > 7.00 | > 6.30 | pIC50 [21]: 6.57
14 | O=C(O)c1ccc2c(c1)nc(Nc1ccc(OCc3ccccc3)cc1)c1ccncc12 |  |  |  |  |  |  |  | inhibition at 0.5 µM ([9]; cell-free assay): 44.3%; IC50 [10]: 14.2 µM; IC50 [11]: > 10 µM
15 | c1cc(-c2nnc[nH]2)c2nc(N3CCCC3)c3ccncc3c2c1 | > 6.30 | < 4.52 | < 5.00 | 5.49 | < 5.00 | > 6.00 | 5.53 | pIC50 [21]: > 7.00
16 | O=C(O)c1ccc2c(c1)nc(Nc1ccc3c(c1)OCCO3)c1ccncc12 |  |  |  |  |  |  |  | IC50 [7]: > 10 µM; IC50 [8]: > 10 µM; inhibition at 0.5 µM ([9]; cell-free assay): 88.4%; pIC50 ([9]; cell-free assay): 6.59; IC50 [10]: 29.6 µM; IC50 [11]: > 10 µM
17 | c1cc(-c2nnc[nH]2)c2nc(NC3CCCC3)c3ccncc3c2c1 | > 7.00 | < 4.52 | < 5.00 | 5.72 | < 5.00 | > 6.30 | > 6.30 | 
18 | CN(C)C[C@@H]1CCn2cc(c3ccccc32)C2=C(C(=O)NC2=O)c2cn(c3ccccc23)CCO1 [Ly5333′531] |  |  |  |  |  |  |  | cell growth and cell death [22]: suppressed cell growth and induced cell death
19 | O=C(O)c1ccc2c(c1)nc(NCCc1cccc(Cl)c1)c1ccncc12 [drawing 1001] |  |  |  |  |  |  |  | IC50 [5]: 9.18 µM; IC50 [6]: 14.2 µM; IC50 [1]: 32.5 µM; IC50 [2]: 47.6 µM; IC50 [3]: 13.9 µM
20 | COc1ccc(Nc2nc3c(-c4nnc[nH]4)cccc3c3cnccc23)c(F)c1 | > 7.00 | > 6.30 | < 5.00 | > 6.00 | 5.16 | > 7.00 | 6.29 | pIC50 [21]: > 6.30
21 | Fc1cc(OCCN2CCCC2)ccc1Nc1nc2c(-c3nnc[nH]3)cccc2c2cnccc12 | > 7.00 |  | < 5.00 | > 6.30 | > 6.00 | > 7.00 | > 7.00 | 
